Results taken from patent US11040981B2, “Pyrrolotriazine compounds and methods of inhibiting TAM kinases” (Syros Pharmaceuticals, Inc., priority 2017, dated 2021).

What was measured:
TYRO3 = target: T1, TYRO3 (Homo sapiens, UniProt Q06418); test: TR-FRET kinase activity assay, TYRO3; assay type: biochemical; settings: ATP at Km, 60 minutes
T1 sequence (Q06418 41-890): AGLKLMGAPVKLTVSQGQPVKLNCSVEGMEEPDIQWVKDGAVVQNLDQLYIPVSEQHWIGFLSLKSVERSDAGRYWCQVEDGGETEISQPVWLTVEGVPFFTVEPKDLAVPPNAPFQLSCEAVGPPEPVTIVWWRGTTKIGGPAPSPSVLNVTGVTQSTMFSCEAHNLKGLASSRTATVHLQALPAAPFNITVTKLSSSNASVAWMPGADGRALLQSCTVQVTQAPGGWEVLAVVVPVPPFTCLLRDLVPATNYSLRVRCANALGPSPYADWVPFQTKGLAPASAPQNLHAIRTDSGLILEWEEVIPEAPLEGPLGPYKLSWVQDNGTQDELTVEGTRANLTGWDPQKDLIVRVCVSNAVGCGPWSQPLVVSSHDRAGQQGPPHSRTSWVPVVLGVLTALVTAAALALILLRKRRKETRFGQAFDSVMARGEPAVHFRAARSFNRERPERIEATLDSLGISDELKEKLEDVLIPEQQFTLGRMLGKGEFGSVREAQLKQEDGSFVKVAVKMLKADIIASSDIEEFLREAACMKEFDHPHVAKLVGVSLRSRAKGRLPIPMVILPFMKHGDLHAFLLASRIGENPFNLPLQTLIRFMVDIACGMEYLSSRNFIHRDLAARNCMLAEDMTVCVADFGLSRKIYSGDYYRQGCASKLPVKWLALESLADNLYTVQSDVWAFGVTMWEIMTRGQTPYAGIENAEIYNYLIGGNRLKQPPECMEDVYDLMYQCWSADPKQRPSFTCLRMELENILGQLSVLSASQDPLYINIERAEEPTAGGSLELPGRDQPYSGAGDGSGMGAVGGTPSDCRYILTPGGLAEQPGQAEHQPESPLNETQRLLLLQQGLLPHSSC
Method: (§1) IC50 values for compound inhibition of AXL, FLT3, MERTK and TYRO3 activity were determined by using a TR-FRET activity assay. A polypeptide substrate with a fluorescent label is phosphorylated on a tyrosine by each enzyme, where the now phosphorylated product is bound by a Europium-labeled antibody specific to that phosphorylation site. The proximity between the antibody and the substrate gives a signal known as TR-FRET. As the enzyme is inhibited by compound, less phosphorylated peptide product is made causing a decrease in overall signal.
(§2) Activity assays were performed in a 384-well, small volume, black microplates in an active enzyme volume of 10 μL and final developed volume of 20 μL. Final assay conditions are 50 mM HEPES pH 7.5, 10 mM MgCl2, 1 mM EGTA, 0.01% Brij 35 and 1 mM DTT all at RT. Enzyme, substrate labeled peptide and compound are mixed, and then the reaction is initiated with the addition of ATP at Km concentration for each enzyme. The reaction is allowed to run 60 minutes and then quenched with a 12.5 mM EDTA (ethylenediamine tetraacetic acid) solution. The plate is then developed with the addition of Europium labeled antibody for a final volume of 20 μL and is then incubated for 30 minutes in darkness. Plates are read in a Pherastar plate reader. Data is analyzed in GraphPad PRISM.
(§3) The results of these assays are shown in Table 1, below, wherein “No.” designates compound number (FIG. 1); “A” represents a value of ≤100 nM; “B” a value of >100 nM and ≤1 μM; “C” a value of >1 μM and ≤10 μM; “D” a value of >10 μM; “ND” is not determined. The ratio of Mer to FLT3 is calculated as follows: FLT3 IC50/Mer IC50. “+” represents a ratio of >2.0 and <10; “++” represents a ratio of between 10 and 100; and “+++” represents a ratio of >100.

AXL = target: T2, AXL (Homo sapiens, UniProt P30530); test: TR-FRET kinase activity assay, AXL; assay type: biochemical; settings: ATP at Km, 60 minutes
T2 sequence (P30530 26-894): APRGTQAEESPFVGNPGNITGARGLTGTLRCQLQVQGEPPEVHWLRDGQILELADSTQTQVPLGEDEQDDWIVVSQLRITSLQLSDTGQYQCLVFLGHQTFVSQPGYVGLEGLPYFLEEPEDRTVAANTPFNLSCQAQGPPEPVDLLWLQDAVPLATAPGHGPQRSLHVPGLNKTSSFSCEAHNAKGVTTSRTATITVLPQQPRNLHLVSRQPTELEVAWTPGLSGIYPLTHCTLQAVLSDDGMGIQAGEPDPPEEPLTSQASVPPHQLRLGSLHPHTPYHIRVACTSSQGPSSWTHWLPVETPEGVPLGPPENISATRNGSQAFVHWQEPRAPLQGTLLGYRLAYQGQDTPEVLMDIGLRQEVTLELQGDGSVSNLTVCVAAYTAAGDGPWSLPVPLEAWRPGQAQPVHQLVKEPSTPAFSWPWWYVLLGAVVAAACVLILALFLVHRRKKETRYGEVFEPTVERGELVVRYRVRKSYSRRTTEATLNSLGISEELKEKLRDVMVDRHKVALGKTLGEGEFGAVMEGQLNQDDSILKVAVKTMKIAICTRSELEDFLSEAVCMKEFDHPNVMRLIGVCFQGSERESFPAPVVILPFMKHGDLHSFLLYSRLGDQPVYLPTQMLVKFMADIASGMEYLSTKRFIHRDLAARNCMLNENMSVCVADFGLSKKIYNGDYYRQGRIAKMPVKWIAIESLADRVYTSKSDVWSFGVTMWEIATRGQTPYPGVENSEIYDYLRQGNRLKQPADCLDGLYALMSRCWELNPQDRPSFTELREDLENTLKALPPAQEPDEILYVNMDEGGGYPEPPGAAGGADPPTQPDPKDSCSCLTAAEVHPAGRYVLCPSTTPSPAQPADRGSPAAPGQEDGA
Method: as §1, §2, §3

Structure (SMILES) | IC50 (TYRO3) [µM] | IC50 (AXL) [µM]
COCCn1cc(-c2cc([C@H]3CC[C@H](O)CC3)n3nc(N[C@@H](C)COC)ncc23)cn1 [Compound 209] | ≤ 0.1 | 0.1 to 1
COC[C@H](C)Nc1ncc2c(-c3cnn(C(C)(C)C)c3)cc([C@H]3CC[C@H](O)CC3)n2n1 [Compound 206] | ≤ 0.1 | 0.1 to 1
COC[C@H](C)Nc1ncc2c(-c3cnn(CCC#N)c3)cc([C@H]3CC[C@H](O)CC3)n2n1 [Compound 222] | ≤ 0.1 | ≤ 0.1
CCCCC[C@H](C)Nc1ncc2c([C@H]3CC[C@@H](C(=O)N4CCOCC4)CC3)cc([C@H]3CC[C@H](O)CC3)n2n1 [Compound 109, ((cis)-4-(2-((S)-heptan-2-ylamino)-7-((trans)-4-hydroxycyclohexyl)pyrrolo[2,1-f][1,2,4]triazin-5-yl)cyclohexyl)(morpholino)methanone] | ≤ 0.1 | ≤ 0.1
COC[C@H](C)Nc1ncc2c(-c3cnn(Cc4cccnc4)c3)cc([C@H]3CC[C@H](O)CC3)n2n1 [Compound 220] | ≤ 0.1 | ≤ 0.1
COC[C@H](C)Nc1ncc2c(-c3cccc(CN4CC[C@@H](F)C4)c3)cc([C@H]3CC[C@H](O)CC3)n2n1 [Compound 224] | ≤ 0.1 | 0.1 to 1
COCC(C)Nc1ncc2c(-c3ccc4nccn4c3)cc(C3CCC(O)CC3)n2n1 (stereo not shown) [Compound 193] | ≤ 0.1 | ≤ 0.1
COC[C@H](C)Nc1ncc2c(-c3ccc(C(=O)N4CCS(=O)(=O)CC4)cc3)cc([C@H]3CC[C@H](O)CC3)n2n1 [Compound 197] | ≤ 0.1 | ≤ 0.1
COC[C@H](C)Nc1ncc2c(-c3cccc4c3CNC4=O)cc([C@H]3CC[C@H](O)CC3)n2n1 [Compound 210] | ≤ 0.1 | 0.1 to 1
Cc1cc(-c2cc([C@H]3CC[C@H](O)CC3)n3nc(N[C@@H](C)CC(F)(F)F)ncc23)ccn1 [Compound 213] | ≤ 0.1 | ≤ 0.1
COC[C@H](C)Nc1ncc2c(-c3ccn(C)n3)cc([C@H]3CC[C@H](O)CC3)n2n1 [Compound 208] | ≤ 0.1 | 0.1 to 1
CCCCC[C@H](C)Nc1ncc2c(-c3ccc(CN4CCN(C)CC4)cc3)cc([C@H]3CC[C@@H](O)CC3)n2n1 [Compound 105] | ≤ 0.1 | 0.1 to 1
CCCCC[C@H](C)Nc1ncc2c(NC3CCN(C)CC3)cc([C@H]3CC[C@H](O)CC3)n2n1 [Compound 107] | ≤ 0.1 | ≤ 0.1
COC[C@H](C)Nc1ncc2c(-c3cccc(CN4CCC(F)(F)C4)c3)cc([C@H]3CC[C@H](O)CC3)n2n1 [Compound 223] | ≤ 0.1 | 0.1 to 1
CCCCC[C@H](C)Nc1ncc2c([C@H]3CC[C@H](C(=O)N4CCOCC4)CC3)cc([C@H]3CC[C@H](O)CC3)n2n1 [Compound 108] | 0.1 to 1 | 0.1 to 1

Continued, values first:

IC50 (TYRO3) [µM] | IC50 (AXL) [µM] | Structure (SMILES)
≤ 0.1 | 0.1 to 1 | COC[C@H](C)Nc1ncc2c(-c3cn(C[Si](C)(C)C)nn3)cc([C@H]3CC[C@H](O)CC3)n2n1 [Compound 248]
≤ 0.1 | 0.1 to 1 | COC[C@H](C)Nc1ncc2c(-c3cnnc(C)c3)cc([C@H]3CC[C@H](O)CC3)n2n1 [Compound 267]
≤ 0.1 | 0.1 to 1 | COC[C@H](C)Nc1ncc2c(-c3cnn(CC(=O)N4CCN(C)CC4)c3)cc([C@H]3CC[C@H](O)CC3)n2n1 [Compound 240]
≤ 0.1 | 0.1 to 1 | COC[C@H](C)Nc1ncc2c(-c3ccc4c(c3)CNC4=O)cc([C@H]3CC[C@H](O)CC3)n2n1 [Compound 252]
≤ 0.1 | ≤ 0.1 | C[C@@H](CC(F)(F)F)Nc1ncc2c(-c3cnn(C4COC4)c3)cc([C@H]3CC[C@H](O)CC3)n2n1 [Compound 269]
≤ 0.1 | ≤ 0.1 | COC[C@H](C)Nc1ncc2c(-c3cnn(C(C)(C)CO)c3)cc([C@H]3CC[C@H](O)CC3)n2n1 [Compound 265]
≤ 0.1 | 0.1 to 1 | COC[C@H](C)Nc1ncc2c(-c3cnn(CC(=O)NC(C)C)c3)cc([C@H]3CC[C@H](O)CC3)n2n1 [Compound 235]
≤ 0.1 | 0.1 to 1 | COC[C@H](C)Nc1ncc2c(-c3cncc(C(=O)N4CCN(C)CC4)c3)cc([C@H]3CC[C@H](O)CC3)n2n1 [Compound 234]
≤ 0.1 | 0.1 to 1 | COC[C@H](C)Nc1ncc2c(-c3ccc(CN4CCOCC4)nc3)cc([C@H]3CC[C@H](O)CC3)n2n1 [Compound 230]
≤ 0.1 | ≤ 0.1 | CC(CCF)Nc1ncc2c(-c3ccc(CN4CCOCC4)cc3)cc(C3CCC(O)CC3)n2n1 (stereo not shown) [Compound 244]
≤ 0.1 | 1 to 10 | COCC(C)Nc1ncc2c(-c3cccc(C)n3)cc(C3CCC(O)CC3)n2n1 (stereo not shown) [Compound 253]
≤ 0.1 | ≤ 0.1 | C[C@@H](COC(F)F)Nc1ncc2c(-c3cnn(C4COC4)c3)cc([C@H]3CC[C@H](O)CC3)n2n1 [Compound 270]
≤ 0.1 | 0.1 to 1 | COC[C@H](C)Nc1ncc2c(-c3ccc(C(=O)N4CCOCC4)nc3)cc([C@H]3CC[C@H](O)CC3)n2n1 [Compound 227]
≤ 0.1 | ≤ 0.1 | COCCn1cc(-c2cc([C@H]3CC[C@H](O)CC3)n3nc(N[C@@H](C)CC(F)(F)F)ncc23)cn1 [Compound 262]
≤ 0.1 | ≤ 0.1 | COC[C@H](C)Nc1ncc2c(-c3cnn(CC(=O)N4CCCC4)c3)cc([C@H]3CC[C@H](O)CC3)n2n1 [Compound 239]
≤ 0.1 | 0.1 to 1 | COC[C@H](C)Nc1ncc2c(-c3cnn(CC(=O)N[C@H]4CCOC4)c3)cc([C@H]3CC[C@H](O)CC3)n2n1 [Compound 237]
≤ 0.1 | ≤ 0.1 | CC(CCOC(F)F)Nc1ncc2c(-c3ccc(CN4CCOCC4)cc3)cc(C3CCC(O)CC3)n2n1 (stereo not shown) [Compound 255]
≤ 0.1 | 0.1 to 1 | CNC(=O)Cn1cc(-c2cc([C@H]3CC[C@H](O)CC3)n3nc(N[C@@H](C)COC)ncc23)cn1 [Compound 241]
≤ 0.1 | ≤ 0.1 | COC[C@H](C)Nc1ncc2c(-c3ccnc(N4CCOCC4)c3)cc([C@H]3CC[C@H](O)CC3)n2n1 [Compound 259]
≤ 0.1 | ≤ 0.1 | COC[C@H](C)Nc1ncc2c(-c3cnn(CC(C)(C)O)c3)cc([C@H]3CC[C@H](O)CC3)n2n1 [Compound 264]
